Reference: publication PMC6199744, “Development of Chemical Proteomics for the Folateome and Analysis of the Kinetoplastid Folateome” (ACS Infectious Diseases, 2018)
Where two headings read alike, the source gives them in different places.

Tests used:
Assay type in all cases: binding
[1] = molecular target: T1, HeLa cell extract proteins (Homo sapiens, UniProt Q9UHI6)
T1 construct: endogenous in cells; host or cells: HeLa cell extract
T1 sequence (Q9UHI6 1-824): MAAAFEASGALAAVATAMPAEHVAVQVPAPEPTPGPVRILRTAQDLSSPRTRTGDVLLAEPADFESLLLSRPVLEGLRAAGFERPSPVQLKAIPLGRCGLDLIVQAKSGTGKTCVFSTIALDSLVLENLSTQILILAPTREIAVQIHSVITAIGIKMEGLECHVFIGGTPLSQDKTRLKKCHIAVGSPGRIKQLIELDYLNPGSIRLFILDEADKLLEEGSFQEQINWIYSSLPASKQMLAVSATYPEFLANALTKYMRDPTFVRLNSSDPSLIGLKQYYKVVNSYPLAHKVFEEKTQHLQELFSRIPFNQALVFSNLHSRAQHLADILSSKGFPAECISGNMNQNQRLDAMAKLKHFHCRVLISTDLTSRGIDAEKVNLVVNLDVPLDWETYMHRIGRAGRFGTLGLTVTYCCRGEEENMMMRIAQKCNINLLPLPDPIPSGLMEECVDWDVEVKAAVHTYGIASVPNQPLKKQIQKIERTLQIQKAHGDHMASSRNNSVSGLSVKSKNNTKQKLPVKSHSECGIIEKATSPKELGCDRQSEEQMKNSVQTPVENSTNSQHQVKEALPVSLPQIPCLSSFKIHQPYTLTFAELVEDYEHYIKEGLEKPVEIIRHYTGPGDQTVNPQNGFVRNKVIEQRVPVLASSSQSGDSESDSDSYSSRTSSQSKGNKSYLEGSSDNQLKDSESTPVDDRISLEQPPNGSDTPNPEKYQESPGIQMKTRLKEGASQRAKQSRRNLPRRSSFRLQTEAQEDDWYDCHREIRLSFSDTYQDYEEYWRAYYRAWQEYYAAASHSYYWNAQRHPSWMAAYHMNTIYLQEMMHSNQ

[2] = molecular target: T2, HeLa cell extract proteins (Homo sapiens, UniProt Q99832)
T2 construct: endogenous in cells; host or cells: HeLa cell extract
T2 sequence (Q99832 1-543): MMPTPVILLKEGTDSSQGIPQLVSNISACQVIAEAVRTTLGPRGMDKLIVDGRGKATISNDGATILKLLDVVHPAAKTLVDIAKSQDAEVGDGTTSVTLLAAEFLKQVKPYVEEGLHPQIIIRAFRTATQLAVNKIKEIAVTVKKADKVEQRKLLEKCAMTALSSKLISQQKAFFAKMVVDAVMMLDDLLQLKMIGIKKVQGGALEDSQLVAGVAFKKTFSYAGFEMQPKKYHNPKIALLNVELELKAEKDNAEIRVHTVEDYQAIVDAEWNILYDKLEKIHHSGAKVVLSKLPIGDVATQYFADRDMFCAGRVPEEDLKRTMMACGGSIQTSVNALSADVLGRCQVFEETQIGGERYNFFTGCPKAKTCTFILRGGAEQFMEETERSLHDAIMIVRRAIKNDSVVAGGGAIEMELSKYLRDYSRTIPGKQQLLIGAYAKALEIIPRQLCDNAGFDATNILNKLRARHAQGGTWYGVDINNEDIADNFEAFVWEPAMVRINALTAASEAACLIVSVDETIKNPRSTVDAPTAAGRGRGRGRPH

[3] = molecular target: T3, HeLa cell extract proteins (Homo sapiens, UniProt Q9NVE7)
T3 construct: endogenous in cells; host or cells: HeLa cell extract
T3 sequence (Q9NVE7 1-773): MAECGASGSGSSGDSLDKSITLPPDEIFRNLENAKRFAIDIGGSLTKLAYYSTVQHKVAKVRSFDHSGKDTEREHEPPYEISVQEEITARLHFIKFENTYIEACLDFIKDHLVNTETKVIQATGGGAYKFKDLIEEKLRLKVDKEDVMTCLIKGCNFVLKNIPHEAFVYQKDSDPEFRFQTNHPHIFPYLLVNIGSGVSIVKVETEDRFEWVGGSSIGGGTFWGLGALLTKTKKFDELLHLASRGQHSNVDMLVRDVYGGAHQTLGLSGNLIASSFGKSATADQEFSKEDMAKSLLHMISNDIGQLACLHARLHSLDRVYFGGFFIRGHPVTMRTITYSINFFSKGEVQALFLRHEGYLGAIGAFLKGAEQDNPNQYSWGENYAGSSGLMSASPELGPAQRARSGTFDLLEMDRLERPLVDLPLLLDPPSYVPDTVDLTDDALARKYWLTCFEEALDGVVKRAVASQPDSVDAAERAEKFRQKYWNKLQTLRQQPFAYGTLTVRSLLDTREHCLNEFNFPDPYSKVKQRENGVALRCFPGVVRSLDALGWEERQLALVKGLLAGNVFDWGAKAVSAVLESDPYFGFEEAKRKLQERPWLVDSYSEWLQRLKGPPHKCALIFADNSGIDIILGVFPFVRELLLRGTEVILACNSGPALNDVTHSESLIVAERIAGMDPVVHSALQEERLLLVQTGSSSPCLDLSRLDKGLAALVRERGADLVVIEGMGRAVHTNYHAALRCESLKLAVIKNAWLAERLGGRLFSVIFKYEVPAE

[4] = molecular target: T4, HeLa cell extract proteins (Homo sapiens, UniProt Q8NEZ5)
T4 construct: endogenous in cells; host or cells: HeLa cell extract
T4 sequence (Q8NEZ5 1-403): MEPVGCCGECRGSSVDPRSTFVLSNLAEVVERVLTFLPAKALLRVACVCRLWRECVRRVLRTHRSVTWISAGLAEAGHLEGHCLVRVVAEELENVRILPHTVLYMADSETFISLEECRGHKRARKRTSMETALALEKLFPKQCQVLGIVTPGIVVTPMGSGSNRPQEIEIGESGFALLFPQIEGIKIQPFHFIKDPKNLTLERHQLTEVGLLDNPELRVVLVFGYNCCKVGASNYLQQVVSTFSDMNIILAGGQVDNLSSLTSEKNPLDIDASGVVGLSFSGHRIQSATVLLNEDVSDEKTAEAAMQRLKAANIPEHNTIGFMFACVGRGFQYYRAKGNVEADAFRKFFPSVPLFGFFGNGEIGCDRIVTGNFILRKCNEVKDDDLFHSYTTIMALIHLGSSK

[5] = molecular target: T5, HeLa cell extract proteins (Homo sapiens, UniProt Q9H2U2)
T5 construct: endogenous in cells; host or cells: HeLa cell extract
T5 sequence (Q9H2U2 33-334): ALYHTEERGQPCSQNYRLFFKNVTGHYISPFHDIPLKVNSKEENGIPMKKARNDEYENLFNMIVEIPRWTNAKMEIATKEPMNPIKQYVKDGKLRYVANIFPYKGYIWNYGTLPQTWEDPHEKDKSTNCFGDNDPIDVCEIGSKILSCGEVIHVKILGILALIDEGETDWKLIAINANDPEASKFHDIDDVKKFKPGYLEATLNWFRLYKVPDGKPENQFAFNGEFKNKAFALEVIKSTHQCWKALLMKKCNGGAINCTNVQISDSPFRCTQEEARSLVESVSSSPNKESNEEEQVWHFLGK

## Nc1nc2c(c(=O)[nH]1)N(C=O)C(CNc1ccc(C(=O)N[C@@H](CCC(=O)O)C(=O)O)cc1)CN2 (some centres unmarked) [LEU, leucovorin]
[1]; HeLa, protein DDX20
  fold changes relative to vehicle control: 0.93
[2]; HeLa, protein CCT7
  fold changes relative to vehicle control: 1.01
[3]; HeLa, captured protein PANK4
  fold changes relative to vehicle control: 0.97
[4]; HeLa, protein FBXO22
  fold changes relative to vehicle control: 1
[5]; HeLa, protein PPA2
  fold changes relative to vehicle control: 1.16

## NCCCNc1ccc(C(=O)NC(CCC(=O)O)C(=O)O)cc1 (centres unmarked) [compound 7]
[1]; HeLa, protein DDX20
  fold changes relative to vehicle control: 0.94
[2]; HeLa, protein CCT7
  fold changes relative to vehicle control: 1.11
[3]; HeLa, captured protein PANK4
  fold changes relative to vehicle control: 1.04
[4]; HeLa, protein FBXO22
  fold changes relative to vehicle control: 0.98
[5]; HeLa, protein PPA2
  fold changes relative to vehicle control: 1.02

## CCCCCCOc1cccc(Cc2cnc(N)nc2N)c1 [compound 2]
[1]; captured protein DDX20, HeLa
  fold changes relative to vehicle control: 1
[2]; protein CCT7, HeLa
  fold changes relative to vehicle control: 1.62
[3]; captured protein PANK4, HeLa
  fold changes relative to vehicle control: 1.12
[4]; captured protein FBXO22, HeLa
  fold changes relative to vehicle control: 1.02
[5]; protein PPA2, HeLa
  fold changes relative to vehicle control: 1.59

## CCCCCCOc1ccc(Cc2cnc(N)nc2N)cc1 [compound 1]
[1]; captured protein DDX20, HeLa
  fold changes relative to vehicle control: 0.89
[2]; protein CCT7, HeLa
  fold changes relative to vehicle control: 1.08
[3]; captured protein PANK4, HeLa
  fold changes relative to vehicle control: 0.98
[4]; captured protein FBXO22, HeLa
  fold changes relative to vehicle control: 0.89
[5]; protein PPA2, HeLa
  fold changes relative to vehicle control: 1.04

## Nc1nc2cccc(-c3ccccc3)c2n1Cc1ccc(Cl)c(Cl)c1 [compound 3]
[1]; captured protein DDX20, HeLa
  fold changes relative to vehicle control: 0.92
[2]; protein CCT7, HeLa
  fold changes relative to vehicle control: 0.98
[3]; captured protein PANK4, HeLa
  fold changes relative to vehicle control: 1.02
[4]; captured protein FBXO22, HeLa
  fold changes relative to vehicle control: 0.96
[5]; protein PPA2, HeLa
  fold changes relative to vehicle control: 0.97

## NCCOCCOCC(=O)Nc1nc2ncc(CNc3ccc(C(=O)NC(CCC(=O)O)C(=O)O)cc3)nc2c(=O)[nH]1 (centres unmarked) [compound 6]
[1]; HeLa, protein DDX20
  fold changes relative to vehicle control: 0.98
[2]; HeLa, protein CCT7
  fold changes relative to vehicle control: 1.2
[3]; HeLa, captured protein PANK4
  fold changes relative to vehicle control: 0.96
[4]; HeLa, protein FBXO22
  fold changes relative to vehicle control: 0.82
[5]; HeLa, protein PPA2
  fold changes relative to vehicle control: 1.24

## Nc1nc2[nH]cc(CCc3ccc(C(=O)N[C@@H](CCC(=O)O)C(=O)O)cc3)c2c(=O)[nH]1 [PTX, pemetrexed]
[1]
  fold changes relative to vehicle control: 0.97
[2]
  fold changes relative to vehicle control: 1.01
[3]
  fold changes relative to vehicle control: 0.93
[4]
  fold changes relative to vehicle control: 1
[5]
  fold changes relative to vehicle control: 1.05
